Read-outs that look alike come from different tables or passages of the source.
Columns and labels:
[1] = test system: PBMC from healthy HCMV seropositive donors; test: IFN-γ ELISPOT assay; format: cell-based, human; conditions: peptide 10 μg/ml
In short: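 PBMC from healthy HCMV-seropositive donors (2.5×10^5 cells/well) were stimulated 18 h at 37° C with individual synthetic HCMV peptides (10 μg/ml) on anti-IFN-γ-coated nitrocellulose. IFN-γ spots were developed with biotinylated antibody and streptavidin-alkaline phosphatase and counted automatically. Counts were averaged over 3 wells, and no-peptide wells were subtracted.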

[2] = test system: CD4+ T cells; test: CD4+/CD8+ analysis of 20-mer peptides (intracellular IFN-γ staining or depletion ELISPOT); format: cell-based, human
Protocol: (§1) To determine whether a particular 20-mer peptide contained either a CD4^+- or CD8^+-restricted epitope, or both, CD4^+/CD8^+ cell depletion ELISPOT assays were performed on PBMC from healthy virus carriers. For any one experiment, three populations of cells were used: a) CD8^+-depleted PBMC, b) CD4^+-depleted PBMC, and c) non-depleted PBMC. These populations of cells were tested concurrently with the same peptides in a conventional ELISPOT assay as described herein above. DYNABEADS M-450 (Dynal, Oslo, Norway) that bound specifically to CD4^+- or CD8^+ cells were used to perform the depletion essentially according to manufacturers instructions. Beads were washed twice in cold PBS supplemented with 2% FCS using magnetic isolation. The requisite number of cells was resuspended in cold PBS supplemented with 2% FCS, added to the beads and then incubated at 4° C., in the dark, for 30 mins (CD8^+ beads) or 60 mins (CD4^+ beads). Populations were depleted of CD4^+ or CD8^+ cells using magnetic separation. After depletion, the non-attached cells were removed and washed once in growth medium, counted and used in conventional ELISPOT assay. Depleted cells were used at 1.7×10^5 cells per well and the non-depleted population was used at the standard 2.5×10^5 cells per well. After the depletion step, each respective cell population was assessed for the purity of CD4^+ and CD8^+ T cells by three-colour flow cytometry. Samples of depleted cell populations were stained with anti-CD3 antibody directly conjugated to fluorescein isothiocyanate (FITC), anti-CD4 antibody conjugated with phycoerythrin (PE) fluorochrome, and anti-CD8 antibody conjugated with Tricolor fluorochrome (described below). The percent of CD3^+/CD4^+ cells present within the CD8^+-depleted population and the percent of CD3^+/CD8^+ cells present within the CD4^+-depleted populations were assessed on FACSCalibur cytometer (Becton Dickinson). The purity of each population was greater than 90% and the results from the ELISPOT assays are expressed as the percentage of CD4+ or CD8^+ cells within the depleted populations that responded toward each peptide by producing IFN-γ.
(§2) PBMCs were incubated at 37° C. in RPMI+10% FCS with and without 10 μg/ml peptides for 6 hours. Golgiplug™ (Pharmingen, San Diego, Calif., USA) was added to the samples according to manufacturer's instructions during the second hour of incubation and cells activated with 25 ng/ml phorbol 12-myristidate 13-acetate (PMA; Sigma-Aldrich Co, St. Louis Mo.) and 1 μg/ml iomomycin (Sigma) acted as a positive control. Following the incubation, 1×10^6 cells/sample were washed and resuspended in staining buffer consisting of PBS with GolgiPlug™, 3% FCS and sodium azide. Cells were then stained with FITC conjugated anti-CD3-FITC (UCHT1, Immunotech, Marseille, France), and either Tricolor (TRI) conjugated anti-CD4 (S3.5, Caltag, Burlingame, Calif.) or anti-CD8 (3B5, Caltag) for 30 minutes, 4° C. in the dark. The cells were fixed for 20 min at 4° C. with Cytofix/Cytoperm™ (BD Biosciences) and resuspended in Perm/Wash™ permeabilization buffer (BD Biosciences) according to manufacturers protocol. Fixed cells were stained with phycoerythrin (PE) conjugated anti-human IFN-γ (B27, Pharmingen) for 30 min at 4° C. in the dark. As a negative control, cells were stained with appropriate isotype matched control antibodies. Cells were washed twice in permeabilization buffer and resuspended in staining buffer before analysis by three-colour flow cytometry on a FACSCalibur cytometer (BD Biosciences). All data analysis was carried out using FlowJo software (Tree Star, Inc. San Carlos, CA).
(§3) When using 20-mer peptides to map epitopes by ELISPOT, it is possible that some responses may be MHC class-II restricted, and not necessarily restricted through HLA class I alleles. It was evident throughout this study that some epitopes identified using ELISPOT could not be confirmed using cytotoxicity analysis. […]

[3] = test system: CD8+ T cells; test: as above; format: cell-based, human
Protocol: as §1, §2, §3

[4] = test system: peptide-sensitized autologous PHA blasts or LCLs; format: cell-based, human; design: key to CTL response: Y: Yes; ND: Not detected
[5] = target: T1, HLA A2 (Homo sapiens, UniProt P04439, D140Y/D185E/D98H/E176V/E277Q/G131W/G231S/I119V/I121R/I166T/I218V/L300P/L318F/N151K/N90K/P208A/P217A/Q86G/Q94H/R138H/R169H/T345S); format: cell-based; conditions: HLA A2 on T2 cells; relative increase in HLA expression vs no peptide at 26° C.
T1 construct: endogenous in cells; host or cells: T2 cells

[6] = overlapping 20mer peptides, Table 4

SICPSQEPMSIYVYALPLKM
ELISPOT Responses (SFC/10^6 PBMC) ([1]; donor eight): 3178 SFC/10^6 PBMC
Responding cells (% CD4) ([2]; donor eight): 1.18%
Responding cells (% CD8) ([3]; donor eight): 1.36%
CTL response [4, 6]: Y

GQTEPIAFV (human cytomegalovirus pp150 CTL epitope peptide)
CTL activity of polyclonal CTL line ([4]; donor seven, effector:target ratio 10:1): lower CTL activity
MSE (MHC stabilization efficiency) [5]: + (+ = 51-99%)

VLAELVKQI (human cytomegalovirus IE1 CTL epitope peptide)
ELISPOT Responses (SFC/10^6 PBMC) ([1]; donor seven): SB(276) SFC/10^6 PBMC
CTL response ([4]; predicted epitopes, Table 3): Y
MSE (MHC stabilization efficiency) [5]: ++ (++ = 100-199%)

WPRERAWALKNPHLAYNPFR (human cytomegalovirus pp150 CTL epitope peptide)
ELISPOT Responses (SFC/10^6 PBMC) ([1]; donor twelve): RE(83) SFC/10^6 PBMC
Responding cells (% CD4) ([2]; donor twelve): 0.03%
Responding cells (% CD8) ([3]; donor twelve): 0.27%
CTL response [4, 6]: Y

MNGQQIFLEVQAIRETVELR
ELISPOT Responses (SFC/10^6 PBMC) ([1]; donor alpha): 277 SFC/10^6 PBMC
ELISPOT Responses (SFC/10^6 PBMC) ([1]; donor two): 2985 SFC/10^6 PBMC
Responding cells (% CD4) ([2]; donor two): 0.26%
Responding cells (% CD8) ([3]; donor two): 0.48%
CTL response [4, 6]: Y

AVGGAVASV (human cytomegalovirus gB CTL epitope peptide)
ELISPOT Responses (SFC/10^6 PBMC) ([1]; donor seven): SB(192) SFC/10^6 PBMC
CTL response ([4]; predicted epitopes, Table 3): Y
MSE (MHC stabilization efficiency) [5]: − (− = 0-50%)

FEQPTETPPEDLDTLSLAIE (human cytomegalovirus IE2 CTL epitope peptide)
ELISPOT Responses (SFC/10^6 PBMC) ([1]; donor fourteen): RK(791) SFC/10^6 PBMC
Responding cells (% CD4) ([2]; donor fourteen): 0.2%
Responding cells (% CD8) ([3]; donor fourteen): 0.35%
CTL response [4, 6]: Y

RQTEKHELLVLVKKAQLNRH
ELISPOT Responses (SFC/10^6 PBMC) ([1]; donor fourteen): RK(313) SFC/10^6 PBMC
Responding cells (% CD4) ([2]; donor fourteen): 1.52%
Responding cells (% CD8) ([3]; donor fourteen): 0.57%
CTL response [4, 6]: Y

QYDPVAALFFFDIDLLLQRG
ELISPOT Responses (SFC/10^6 PBMC) ([1]; donor seven): SB(97) SFC/10^6 PBMC
Responding cells (% CD4) ([2]; donor seven): 0.22%
Responding cells (% CD8) ([3]; donor seven): 0.03%
CTL response [4, 6]: Y

ATVQGQNLKYQEFFWDANDI
ELISPOT Responses (SFC/10^6 PBMC) ([1]; donor epsilon): SC(687) SFC/10^6 PBMC
ELISPOT Responses (SFC/10^6 PBMC) ([1]; donor five): 226 SFC/10^6 PBMC
ELISPOT Responses (SFC/10^6 PBMC) ([1]; donor gamma): 202 SFC/10^6 PBMC
ELISPOT Responses (SFC/10^6 PBMC) ([1]; donor three): 189 SFC/10^6 PBMC
ELISPOT Responses (SFC/10^6 PBMC) ([1]; donor twelve): 25 SFC/10^6 PBMC
Responding cells (% CD4) ([2]; donor twelve): 0.03%
Responding cells (% CD8) ([3]; donor twelve): 0%
CTL response [4, 6]: Y

SMMWMRFFV (human cytomegalovirus US2 CTL epitope peptide)
ELISPOT Responses (SFC/10^6 PBMC) ([1]; donor delta): SE(393) SFC/10^6 PBMC
CTL response ([4]; predicted epitopes, Table 3): Y
MSE (MHC stabilization efficiency) [5]: ++ (++ = 100-199%)

YYTSAFVFPTKDVALRHVVC
ELISPOT Responses (SFC/10^6 PBMC) ([1]; donor eight): JW(858) SFC/10^6 PBMC
ELISPOT Responses (SFC/10^6 PBMC) ([1]; donor seven): 775 SFC/10^6 PBMC
ELISPOT Responses (SFC/10^6 PBMC) ([1]; donor two): 358 SFC/10^6 PBMC
Responding cells (% CD4) ([2]; donor two): 0.05%
Responding cells (% CD8) ([3]; donor two): 0.04%
CTL response [4, 6]: Y

QAIRETVELRQYDPVAALFF
ELISPOT Responses (SFC/10^6 PBMC) ([1]; donor alpha): 102 SFC/10^6 PBMC
ELISPOT Responses (SFC/10^6 PBMC) ([1]; donor seven): 241 SFC/10^6 PBMC
ELISPOT Responses (SFC/10^6 PBMC) ([1]; donor two): JD(2593) SFC/10^6 PBMC
Responding cells (% CD4) ([2]; donor two): 0.28%
Responding cells (% CD8) ([3]; donor two): 0.33%
CTL response [4, 6]: Y

IIKPGKISHIMLDVAFTSHE
ELISPOT Responses (SFC/10^6 PBMC) ([1]; donor eight): JW(370) SFC/10^6 PBMC
ELISPOT Responses (SFC/10^6 PBMC) ([1]; donor epsilon): 691 SFC/10^6 PBMC
ELISPOT Responses (SFC/10^6 PBMC) ([1]; donor gamma): 177 SFC/10^6 PBMC
ELISPOT Responses (SFC/10^6 PBMC) ([1]; donor seven): SB(155), SFC/10^6 PBMC
Responding cells (% CD4) ([2]; donor eight): 0.04%
Responding cells (% CD4) ([2]; donor seven): 0.02%
Responding cells (% CD8) ([3]; donor eight): 0.05%
Responding cells (% CD8) ([3]; donor seven): 0.03%
CTL response [4, 6]: Y

TYEKYGNVSVFETSGGLVVF (human cytomegalovirus gB CTL epitope peptide)
ELISPOT Responses (SFC/10^6 PBMC) ([1]; donor delta): SE(75) SFC/10^6 PBMC
Responding cells (% CD4) ([2]; donor delta): 0%
Responding cells (% CD8) ([3]; donor delta): 0.097%
CTL response [4, 6]: Y

IIYTRNHEV (human cytomegalovirus IE2 CTL epitope peptide)
ELISPOT Responses (SFC/10^6 PBMC) ([1]; donor delta): SE(137) SFC/10^6 PBMC
ELISPOT Responses (SFC/10^6 PBMC) ([1]; donor fifteen): 80 SFC/10^6 PBMC
ELISPOT Responses (SFC/10^6 PBMC) ([1]; donor seven): 369 SFC/10^6 PBMC
peptide concentration required for half maximal lysis, fold more than NLVPMVATV and VLEETSVML epitopes respectively [4]: 100-500 fold
CTL response ([4]; predicted epitopes, Table 3): Y
MSE (MHC stabilization efficiency) [5]: + (+ = 51-99%)

VFTWPPWQAGILARNLVPMV
ELISPOT Responses (SFC/10^6 PBMC) ([1]; donor delta): 533 SFC/10^6 PBMC
ELISPOT Responses (SFC/10^6 PBMC) ([1]; donor four): 420 SFC/10^6 PBMC
Responding cells (% CD4) ([2]; donor delta): 0%
Responding cells (% CD8) ([3]; donor delta): 0.45%
CTL response [4, 6]: Y

PQYSEHPTFTSQYRIQGKLE
ELISPOT Responses (SFC/10^6 PBMC) ([1]; donor delta): 980 SFC/10^6 PBMC
ELISPOT Responses (SFC/10^6 PBMC) ([1]; donor four): MB(413) SFC/10^6 PBMC
ELISPOT Responses (SFC/10^6 PBMC) ([1]; donor fourteen): 1393 SFC/10^6 PBMC
Responding cells (% CD4) ([2]; donor delta): 0%
Responding cells (% CD4) ([2]; donor four): 0.05%
Responding cells (% CD4) ([2]; donor fourteen): 1.69%
Responding cells (% CD8) ([3]; donor delta): 0.87%
Responding cells (% CD8) ([3]; donor four): 0%
Responding cells (% CD8) ([3]; donor fourteen): 0.96%
CTL response [4]: Y

QQNQWKEPDVYYTSAFVFPT
ELISPOT Responses (SFC/10^6 PBMC) ([1]; donor eight): JW(600) SFC/10^6 PBMC
Responding cells (% CD4) ([2]; donor eight): 0%
Responding cells (% CD8) ([3]; donor eight): 0.03%
CTL response [4, 6]: Y
